Measurements published in patent US9439422B2, “Use of macrocyclic picolinamides as fungicides” (DOW AGROSCIENCES LLC, priority 2013, dated 2016).
Like-named read-outs stand apart in the source and are kept apart here.

Columns and labels:
[1] = tested on: Mycosphaerella graminicola; Anamorph: Septoria tritici; experiment: Leaf Blotch of Wheat (SEPTTR) disease control on wheat seedlings; format: in vivo; details: Zymoseptoria tritici; for pest or weed control at 100 ppm: rate 100 ppm; for pest or weed control at 121.5 g/ha: rate 121.5 g/H
Description: Evaluation of Fungicidal Activity: Leaf Blotch of Wheat (Mycosphaerella graminicola; Anamorph: Septoria tritici; Bayer Code […]) Technical grades of materials were dissolved in acetone, which were then mixed with nine volumes of water containing 110 ppm Triton X-100. The fungicide solutions were applied onto wheat seedlings using an automated booth sprayer to run-off. All sprayed plants were allowed to air dry prior to further handling. All fungicides were evaluated using the aforementioned method for their activity vs. all target diseases. Wheat leaf blotch and brown rust activity were also evaluated using track spray applications, in which case the fungicides were formulated as EC formulations, containing 0.1% Trycol 5941 in the spray solutions. Wheat plants (variety Yuma) were grown from seed in a greenhouse in 50% mineral soil/50% soil-less Metro mix until the first leaf was fully emerged, with 7-10 seedlings per pot. These plants were inoculated with an aqueous spore suspension of Septoria tritici either prior to or after fungicide treatments. After inoculation the plants were kept in 100% relative humidity (one day in a dark dew chamber followed by two to three days in a lighted dew chamber at 20° C.) to permit spores to germinate and infect the leaf. The plants were then transferred to a greenhouse set at 20° C. for disease to develop. When disease symptoms were fully expressed on the 1st leaves of untreated plants, infection levels were assessed on a scale of 0 to 100 percent disease severity. Percent disease control was calculated using the ratio of disease severity on treated plants relative to untreated plants.

[2] = tested on: Puccinia triticina; Synonym: Puccinia recondite f. sp. tritici; experiment: Wheat Brown Rust (PUCCRT) disease control on wheat seedlings; format: in vivo; details: for pest or weed control at 100 ppm: rate 100 ppm; for pest or weed control at 121.5 g/ha: rate 121.5 g/H
Description: Technical grades of materials were dissolved in acetone, which were then mixed with nine volumes of water containing 110 ppm Triton X-100. The fungicide solutions were applied onto wheat seedlings using an automated booth sprayer to run-off. All sprayed plants were allowed to air dry prior to further handling. All fungicides were evaluated using the aforementioned method for their activity vs. all target diseases. Wheat leaf blotch and brown rust activity were also evaluated using track spray applications, in which case the fungicides were formulated as EC formulations, containing 0.1% Trycol 5941 in the spray solutions. Wheat plants (variety Yuma) were grown from seed in a greenhouse in 50% mineral soil/50% soil-less Metro mix until the first leaf was fully emerged, with 7-10 seedlings per pot. These plants were inoculated with an aqueous spore suspension of Septoria tritici either prior to or after fungicide treatments. After inoculation the plants were kept in 100% relative humidity (one day in a dark dew chamber followed by two to three days in a lighted dew chamber at 20° C.) to permit spores to germinate and infect the leaf. The plants were then transferred to a greenhouse set at 20° C. for disease to develop. When disease symptoms were fully expressed on the 1st leaves of untreated plants, infection levels were assessed on a scale of 0 to 100 percent disease severity. Percent disease control was calculated using the ratio of disease severity on treated plants relative to untreated plants. Evaluation of Fungicidal Activity: Wheat Brown Rust (Puccinia triticina; Synonym: Puccinia recondite f. sp. tritici; Bayer Code PUCCRT) Wheat plants (variety Yuma) were grown from seed in a greenhouse in 50% mineral soil/50% soil-less Metro mix until the first leaf was fully emerged, with 7-10 seedlings per pot. These plants were inoculated with an aqueous spore suspension of Puccinia triticina either prior to or after fungicide treatments. After inoculation the plants were kept in a dark dew room at 22° C. with 100% relative humidity overnight to permit spores to germinate and infect the leaf. The plants were then transferred to a greenhouse set at 24° C. for disease to develop. Fungicide formulation, application and disease assessment followed the procedures as described in the Example A.

[3] = 24 h, 1 Day Protectant, read-out: SEPTTR disease control, 1DP
[4] = 72 h, 3 Day Curative, read-out: SEPTTR disease control, 3DC
[5] = 24 h, 1 Day Protectant, read-out: PUCCRT disease control, 1DP
[6] = 72 h, 3 Day Curative, read-out: PUCCRT disease control, 3DC

Row | Structure (SMILES) | pest or weed control at 100 ppm [1, 3] | pest or weed control at 100 ppm [1, 4] | pest or weed control at 100 ppm [2, 5] | pest or weed control at 121.5 g/ha [1, 3] | pest or weed control at 121.5 g/ha [1, 4] | pest or weed control at 121.5 g/ha [2, 5] | pest or weed control at 100 ppm [2, 6] | pest or weed control at 121.5 g/ha [2, 6]
1 | COc1ccnc(C(=O)N[C@H]2COC[C@H](Cc3ccc(C(F)(F)F)cc3)[C@@H](OC(=O)C(C)C)[C@H](C)OC2=O)c1O [Compound F30] | 80 to 100% | 0 to 80% | 80 to 100% |  |  |  |  | 
2 | CCOCC(=O)OCOc1c(OC)ccnc1C(=O)N[C@H]1COC[C@H](CC2CCCC2)[C@@H](OCC(C)C)[C@H](C)OC1=O [Compound F121] | 80 to 100% | 80 to 100% | 80 to 100% | 80 to 100% | 80 to 100% | 80 to 100% | 80 to 100% | 80 to 100%
